From patent US20240261422A1, “ANTHRACYCLINE ANTIBODY CONJUGATES” (SEAGEN INC., priority 2021, published 2024)
Like-named read-outs stand apart in the source and are kept apart here.

Experiments:
BxPC3, PancCa = experiment: In vitro growth inhibition (CellTiter-Glo, 96 h), BxPC3; type: cell-based; settings: for IC50: anthracycline free drugs, 96 h, read-out: IC50 (nM) BxPC3, PancCa; for IC50 (ng/mL) BxPC3, PancCa: cOKT9 ADCs, average DAR 8, 96 h
Procedure: (§1) Cell culture of cell lines as listed in Table 2-4 in log-phase growth were seeded in 96-well plates and grown for 24 h in cell culture media containing 150 μL RPMI 1640 supplemented with 20% FBS (see Mol. Cancer Ther., 2016, 15(5), 938-945 and Mol. Cancer Ther., 2018, 17(8), 1752-1760). Serial dilutions of free drugs or antibody-drug conjugates (final concentration between 0.004 nM and 1 μM) in cell culture media were prepared at 4× working concentrations; 50 μL of each dilution was added to the 96-well plates. Following addition of the drug or ADC, the cells were incubated with test articles (free drugs or ADCs) for 4 d at 37° C. After 96 h, growth inhibition was assessed by CellTiter-Glo® (Promega, Madison, WI) and luminescence was measured on a plate reader (brand, model).
(§2) Cells were treated for 96 hours with anthracycline analogues listed in Table 2, and then assessed for viability as described in the procedures as described above. […] ND denotes value not determined with that assay for the specified compound.
(§3) ADCs were prepared by full reduction of interchain disulfides to reveal 8-conjugatable cysteines/antibody, and subsequent alkylation with the maleimide-containing drug-linkers (Compounds 14, 18, 21, 24, 29, 32, 33, 34, and 48) according to the procedures described in Mol. Cancer Ther. 2018, 17(8). 1752-1760. Conjugates of antibody cOKT9 were prepared with anthracycline linkers. Cancer cell lines were treated with cOKT9 ADCs (average DAR of 8:1) for 96 h and then assessed for viability. […] ND denotes value not determined with that assay for the specified compound.

L540cy, HL = experiment: In vitro growth inhibition (CellTiter-Glo, 96 h), L540cy; type: cell-based; settings: for IC50: anthracycline free drugs, 96 h, read-out: IC50 (nM) L540cy, HL
Procedure: as §1, §2, §3
(§4) Anti-CD30 ADCs comprising cAC10 antibody conjugated to drug-linkers 24, 32, 29, 18, 14, and 48 with an average DAR of 4 were prepared for evaluation on a CD30-expressing lymphoma cell line panel. […] Anti-CD30 conjugates bearing the PNU linkers 24, 32, 29, 18, and 14 were active on L540cy, DEL, and Karpas299 lymphoma cell lines, and conjugate 48 was active on L540cy and DEL cell lines, with IC50s ranging from 0.2-4 ng/mL.

786-O, MDR + RCC = experiment: In vitro growth inhibition (CellTiter-Glo, 96 h), 786-O; type: cell-based; settings: for IC50: 96 h; for IC50 (ng/mL) 786-O, MDR + RCC: cOKT9 ADCs, average DAR 8, 96 h
Procedure: as §1, §2, §3

[1] = system: L540cy, 786-O, BxPC3, HL60, HL60/RV; settings: for change of potency relative to the parent compound: comparison in words; for IC50s of cOKT9 conjugates: 24 h
HL60, AML = experiment: In vitro growth inhibition (CellTiter-Glo, 96 h), HL60; type: cell-based; settings: for IC50: read-out: IC50 (nM) HL60, AML; for IC50 (ng/mL) HL60, AML: cOKT9 ADCs, average DAR 8, 96 h
Procedure: as §1, §2, §3

HL60/RV, MDR + AML = experiment: In vitro growth inhibition (CellTiter-Glo, 96 h), HL60/RV; type: cell-based; settings: for IC50: read-out: IC50 (nM) HL60/RV, MDR + AML; for IC50 (ng/mL) HL60/RV, MDR + AML: cOKT9 ADCs, average DAR 8, 96 h
Procedure: as §1, §2, §3

L428, MDR + HL = experiment: In vitro growth inhibition (CellTiter-Glo, 96 h), L428; type: cell-based; settings: cAC10 (anti-CD30) ADCs, average DAR 4
Procedure: as §1, §4

Karpas299, ALCL = experiment: In vitro growth inhibition (CellTiter-Glo, 96 h), Karpas299; type: cell-based; settings: cAC10 (anti-CD30) ADCs, average DAR 4
Procedure: as §1, §4

DEL, ALCL = experiment: In vitro growth inhibition (CellTiter-Glo, 96 h), DEL; type: cell-based; settings: cAC10 (anti-CD30) ADCs, average DAR 4
Procedure: as §1, §4

Ramos, CD30 − NHL = experiment: In vitro growth inhibition (CellTiter-Glo, 96 h), Ramos; type: cell-based; settings: cAC10 (anti-CD30) ADCs, average DAR 4
Procedure: as §1, §4

[2] = Homo sapiens, 786-0, anthracycline free drugs, read-out: IC50 (nM) 786-O, MDR + RCC
[3] = cOKT9 ADCs, average DAR 8, 96 h
[4] = cAC10 (anti-CD30) ADCs, average DAR 4
[5] = cOKT9 ADCs DAR 8, result in words

COc1cccc2c1C(=O)c1c(O)c3c(c(O)c1C2=O)C[C@@](O)(C(=O)O)C[C@@H]3O[C@H]1C[C@H](N2CCO[C@H](OC)C2)[C@H](O)[C@H](C)O1 [Compound 4, (2S,4S)-2,5,12-trihydroxy-4-(((2R,4S,5S,6S)-5-hydroxy-4-((S)-2-methoxymorpholino)-6-methyltetrahydro-2H-pyran-2-yl)oxy)-7-methoxy-6,11-dioxo-1,2,3,4,6,11-hexahydrotetracene-2-carboxylic acid]
IC50 (BxPC3, PancCa; Homo sapiens, BXPC-3): 10 to 100 nM | IC50 (L540cy, HL; L540cy): 10 to 100 nM | IC50 (786-O, MDR + RCC; [2]): 10 to 100 nM | change of potency relative to the parent compound ([1]; free drugs): lost roughly one order of magnitude in potency

COc1cccc2c1C(=O)c1c(O)c3c(c(O)c1C2=O)C[C@@](O)(C(=O)CO)C[C@@H]3O[C@H]1C[C@H]2[C@H](O[C@@H]3[C@@H](OC)OCCN32)[C@H](C)O1 [Compound 5, PNU-159682, reference compound]
IC50 (BxPC3, PancCa): < 10 nM | IC50 (L540cy, HL): < 10 nM | IC50 (786-O, MDR + RCC; anthracycline free drugs, read-out: IC50 (nM) 786-O, MDR + RCC): < 10 nM | IC50 (786-O, MDR + RCC; free drug, read-out: IC50 value, 786-0): < 0.004 nM | IC50 (HL60, AML; anthracycline free drugs, 96 h): < 10 nM | IC50 (HL60/RV, MDR + AML; anthracycline free drugs, 96 h): < 10 nM | IC50 ([1]; read-out: IC50 values on the cancer lines tested, free drugs, 96 h, value or range over the cell lines tested): ~0.01 nM

COc1cccc2c1C(=O)c1c(O)c3c(c(O)c1C2=O)C[C@@](O)(C(=O)NCCN)C[C@@H]3O[C@H]1C[C@H]2[C@H](O[C@@H]3[C@@H](OC)OCCN32)[C@H](C)O1 [Compound 9, (2S,4S)—N-(2-aminoethyl)-2,5,12-trihydroxy-7-methoxy-4-(((1S,3R,4aS,9S,9aR,10aS)-9-methoxy-1-methyloctahydro-1H-pyrano[4′,3′:4,5]oxazolo[2,3-c][1,4]oxazin-3-yl)oxy)-6,11-dioxo-1,2,3,4,6,11-hexahydrotetracene-2-carboxamide]
IC50 (BxPC3, PancCa; Homo sapiens, BXPC-3): < 10 nM | IC50 (L540cy, HL; L540cy): < 10 nM | IC50 (786-O, MDR + RCC; [2]): < 10 nM | IC50 (HL60, AML; Homo sapiens, HL-60, 96 h): < 10 nM | IC50 (HL60/RV, MDR + AML; Homo sapiens, HL-60, 96 h): 100 to 1000 nM | change of potency relative to the parent compound ([1]; free drugs): increased potency in 4 of 5 cell lines

COc1cccc2c1C(=O)c1c(O)c3c(c(O)c1C2=O)C[C@@](O)(C(=O)NCCOCCOCCOCCOCCNC(=O)CCN1C(=O)C=CC1=O)C[C@@H]3O[C@H]1C[C@H]2[C@H](O[C@@H]3[C@@H](OC)OCCN32)[C@H](C)O1 [Compound 21, (2S,4S)—N-(18-(2,5-dioxo-2,5-dihydro-1H-pyrrol-1-yl)-16-oxo-3,6,9,12-tetraoxa-15-azaoctadecyl)-2,5,12-trihydroxy-7-methoxy-4-(((1S,3R,4aS,9S,9aR,10aS)-9-methoxy-1-methyloctahydro-1H-pyrano[4′,3′:4,5]oxazolo[2,3-c][1,4]oxazin-3-yl)oxy)-6,11-dioxo-1,2,3,4,6,11-hexahydrotetracene-2-carboxamide]
IC50 (ng/mL) BxPC3, PancCa (BxPC3, PancCa): A (IC50<10 ng/mL) | IC50 (ng/mL) L540cy, HL (L540cy, HL; [3]): A (IC50<10 ng/mL) | IC50 (ng/mL) 786-O, MDR + RCC (786-O, MDR + RCC): A (IC50<10 ng/mL) | IC50 (ng/mL) HL60, AML (HL60, AML): C (100 ng/mL≤IC50<1000 ng/mL) | IC50 (ng/mL) HL60/RV, MDR + AML (HL60/RV, MDR + AML): D (IC50≥1000 ng/mL) | IC50s of cOKT9 conjugates [1]: 1 to 150 ng/mL

COc1cccc2c1C(=O)c1c(O)c3c(c(O)c1C2=O)C[C@@](O)(C(=O)NCCNC(=O)OCc1ccc(NC(=O)[C@H](C)NC(=O)[C@@H](NC(=O)CCN2C(=O)C=CC2=O)C(C)C)cc1)C[C@@H]3O[C@H]1C[C@H]2[C@H](O[C@@H]3[C@@H](OC)OCCN32)[C@H](C)O1 [Compound 24, 4-((S)-2-((S)-2-(3-(2,5-dioxo-2,5-dihydro-1H-pyrrol-1-yl)propanamido)-3-methylbutanamido)propanamido)benzyl (2-((2S,4S)-2,5,12-trihydroxy-7-methoxy-4-(((1S,3R,4aS,9S,9aR,10aS)-9-methoxy-1-methyloctahydro-1H-pyrano[4′,3′:4,5]oxazolo[2,3-c][1,4]oxazin-3-yl)oxy)-6,11-dioxo-1,2,3,4,6,11-hexahydrotetracene-2-carboxamido)ethyl)carbamate]
IC50 (ng/mL) BxPC3, PancCa (BxPC3, PancCa): A (IC50<10 ng/mL) | IC50 (ng/mL) L540cy, HL (L540cy, HL; [4]): B (1 ng/mL≤IC50<10 ng/mL) | IC50 (ng/mL) L540cy, HL (L540cy, HL; [3]): A (IC50<10 ng/mL) | IC50 (ng/mL) L428, MDR + HL (L428, MDR + HL): E (IC50≥500 ng/mL) | IC50 (ng/mL) Karpas299, ALCL (Karpas299, ALCL): B (1 ng/mL≤IC50<10 ng/mL) | IC50 (ng/mL) 786-O, MDR + RCC (786-O, MDR + RCC): B (10 ng/mL≤IC50<100 ng/mL) | IC50 (ng/mL) DEL, ALCL (DEL, ALCL): A (IC50<1 ng/mL) | IC50 (ng/mL) HL60, AML (HL60, AML): B (10 ng/mL≤IC50<100 ng/mL) | IC50 (ng/mL) Ramos, CD30 − NHL (Ramos, CD30 − NHL): D (100 ng/mL≤IC50<500 ng/mL) | activity of cOKT9 conjugates on multidrug resistant HL60/RV (HL60/RV, MDR + AML; [5]): active | IC50 (ng/mL) HL60/RV, MDR + AML (HL60/RV, MDR + AML): B (10 ng/mL≤IC50<100 ng/mL) | IC50s of cOKT9 conjugates [1]: 1 to 150 ng/mL

COc1cccc2c1C(=O)c1c(O)c3c(c(O)c1C2=O)C[C@@](O)(C(=O)NCCNC(=O)CCN1C(=O)C=CC1=O)C[C@@H]3O[C@H]1C[C@H](N2CCO[C@H](OC)C2)[C@H](O)[C@H](C)O1 [Compound 34, (2S,4S)—N-(2-(3-(2,5-dioxo-2,5-dihydro-1H-pyrrol-1-yl)propanamido)ethyl)-2,5,12-trihydroxy-4-(((2R,4S,5S,6S)-5-hydroxy-4-((S)-2-methoxymorpholino)-6-methyltetrahydro-2H-pyran-2-yl)oxy)-7-methoxy-6,11-dioxo-1,2,3,4,6,11-hexahydrotetracene-2-carboxamide]
IC50 (ng/mL) BxPC3, PancCa (BxPC3, PancCa): D (IC50≥1000 ng/mL) | IC50 (ng/mL) L540cy, HL (L540cy, HL; [3]): D (IC50≥1000 ng/mL) | IC50 (ng/mL) 786-O, MDR + RCC (786-O, MDR + RCC): D (IC50≥1000 ng/mL) | activity of cOKT9 conjugates across the panel of cancer cell lines [1, 5]: inactive

COc1cccc2c1C(=O)c1c(O)c3c(c(O)c1C2=O)C[C@@](O)(C(=O)NCCNC(=O)CNC(=O)[C@H](C)NC(=O)[C@@H](NC(=O)CCN1C(=O)C=CC1=O)C(C)C)C[C@@H]3O[C@H]1C[C@H]2[C@H](O[C@@H]3[C@@H](OC)OCCN32)[C@H](C)O1 [Compound 48, (2S,4S)—N-((8S,11S)-15-(2,5-dioxo-2,5-dihydro-1H-pyrrol-1-yl)-11-isopropyl-8-methyl-4,7,10,13-tetraoxo-3,6,9,12-tetraazapentadecyl)-2,5,12-trihydroxy-7-methoxy-4-(((1S,3R,4aS,9S,9aR,10aS)-9-methoxy-1-methyloctahydro-1H-pyrano[4′,3′:4,5]oxazolo[2,3-c][1,4]oxazin-3-yl)oxy)-6,11-dioxo-1,2,3,4,6,11-hexahydrotetracene-2-carboxamide]
IC50 (ng/mL) BxPC3, PancCa (BxPC3, PancCa): A (IC50<10 ng/mL) | IC50 (ng/mL) L540cy, HL (L540cy, HL; [4]): A (IC50<1 ng/mL) | IC50 (ng/mL) L540cy, HL (L540cy, HL; [3]): A (IC50<10 ng/mL) | IC50 (ng/mL) 786-O, MDR + RCC (786-O, MDR + RCC): B (10 ng/mL≤IC50<100 ng/mL) | IC50 (ng/mL) DEL, ALCL (DEL, ALCL): A (IC50<1 ng/mL) | IC50s of cOKT9 conjugates [1]: 1 to 150 ng/mL
